According to PubChem BioAssay (NCI):
Several values for one entry are separate records, joined by “and”; a condition that tells them apart may be missing. Equal values may be shown once.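 A five-concentration, 48-hour dose response in 96-well plates underlies each endpoint, interpolated linearly between surrounding concentrations. GI50: concentration for 50% inhibition of growth. TGI is the concentration that stops growth completely.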

Tests used:
Test in all cases: growth of human tumour cells (NCI), 48 h
[1] = tested on: 786-0 renal
[2] = tested on: CCRF-CEM leukemia
[3] = tested on: EKVX NSCLC
[4] = tested on: HCT-15 colon
[5] = tested on: LOX IMVI melanoma
[6] = tested on: NCI-H23 lung
[7] = tested on: NCI-H460 lung
[8] = tested on: OVCAR-3 ovarian
[9] = tested on: SK-OV-3 ovarian
[10] = tested on: SR leukemia

Structure (SMILES)	GI50 [1] [µM]	TGI [1]	GI50 [2]	TGI [2]	GI50 [3]	TGI [3]	GI50 [4] [µM]	TGI [4]	GI50 [5] [µM]	TGI [5]	GI50 [6]	TGI [6]	GI50 [7] [µM]	TGI [7]	GI50 [8] [µM]	TGI [8]	GI50 [9]	TGI [9]	GI50 [10] [µM]	TGI [10]
O=C1c2ccccc2C(=O)c2c1ccc1[nH]c(CCl)nc21	2.91	9.38 µM	2.19 µM	6.42 µM	2.59 µM	10.7 µM	1.45	3.1 µM	2.2	5.22 µM	1.65 µM	3.6 µM	3.97	15.1 µM	1.64	3.03 µM	3.67 µM	9.08 µM	2.25	13.8 µM
CC(=O)OCCc1cccnc1/C=N/O	–	> 100 µM	–	> 100 µM	–	> 100 µM	–	> 100 µM	–	> 100 µM	–	> 100 µM	–	> 100 µM	–	> 100 µM	–	> 100 µM	–	> 100 µM
CCN1CCN(c2nc(NCCNc3ccnc4cc(Cl)ccc34)c3ccccc3n2)CC1	1.03	2.44 µM	0.759 µM	7.59 µM	2.62 µM	11.6 µM	1.52	5.25 µM	1.51	3.01 µM	2.77 µM	10.7 µM	1.91	5.33 µM	1.87	4.2 µM	2.13 µM	4.71 µM	0.287	0.898 µM
O=C(O)Cc1c[nH]c2ccc(F)cc12	–	> 100 µM	–	> 100 µM	–	> 100 µM	–	> 100 µM	–	> 100 µM	–	> 100 µM	–	> 100 µM	–	> 100 µM	–	> 100 µM	–	> 100 µM
C[C@@H]1Cc2c([nH]c3ccccc23)[C@@H](c2c(F)cc(/C=C/C(=O)O)cc2F)N1CC(C)(C)F	14.2	28.1 µM	12 µM	33.8 µM	12.7 µM	39.2 µM	8.14	24.3 µM	12.3	27.2 µM	11.2 µM	33.8 µM	11.5	27.8 µM	13.8	29.1 µM	18.6 µM	36.7 µM	15.9	48.4 µM
OCCNCO	–	> 100 µM	–	> 100 µM	–	> 100 µM	–	> 100 µM	–	> 100 µM	–	> 100 µM	–	> 100 µM	–	> 100 µM	–	> 100 µM	–	> 100 µM
C#CC(C)(C)Oc1cc(O)c2c(=O)c3ccccc3n(C)c2c1	–	> 100 µM	–	> 100 µM	–	> 100 µM	–	> 100 µM	–	44.3 µM	–	> 100 µM	–	> 100 µM	–	> 100 µM	–	> 100 µM	–	35.7 µM
COc1cc2c(NCCCCCCO[N+](=O)[O-])ncnc2c(OC)c1OC	–	69.2 µM	–	67.8 µM	–	68.3 µM	–	72.7 µM	–	49.3 µM	–	59.6 µM	–	69.8 µM	–	> 78 µM	–	> 100 µM	–	45.1 µM
CC[n+]1ccc2c(c1)C(=O)c1nccc3c1c-2nc1ccccc13	0.768	2.97 µM	1.39 µM	14.4 µM	3.53 µM	8.92 µM	2.86	> 33.3 µM	2.19	7.93 µM	0.28 µM	2.64 µM	0.12	2.65 µM	0.783	2.92 µM	0.799 µM	4.83 µM	0.339	12.4 µM
O=[n+]1c(CBr)c(CBr)n([O-])c2ccccc21	11.9	25.7 µM	2.79 µM	14.2 µM	15.3 µM	29 µM	1.82	3.48 µM	1.8	3.48 µM	14.8 µM	29.4 µM	16.9	34.6 µM	1.79	3.25 µM	24.9 µM	> 100 µM	2.82	> 100 µM
CN1CCN(Cc2ccc(NC(=O)c3cncc(C#Cc4cnc(N)c5ccccc45)c3)cc2C(F)(F)F)CC1	0.423	0.89 µM	0.125 µM	1.44 µM	0.413 µM	0.974 µM	0.124	0.534 µM	0.387	0.837 µM	0.41 µM	0.963 µM	0.158	0.581 µM	0.41	0.967 µM	0.199 µM	0.638 µM	0.157	6.63 µM
N#Cc1c(O)c2c(c(O)c1C#N)C(=O)c1ccccc1C2=O	2.45	5.45 µM	2.23 µM	5.82 µM	3.07 µM	26.1 µM	2.32	> 28.1 µM	0.349	4.29 µM	0.621 µM	2.7 µM	1.04	> 33.8 µM	0.745	2.94 µM	3.99 µM	> 34.9 µM	1.82	5.35 µM
Cc1c(Cl)cccc1Nc1ncccc1C(=O)O	70.4	> 100 µM	64.2 µM	> 100 µM	34.1 µM	> 100 µM	38.1	> 100 µM	54.9	> 100 µM	58.3 µM	> 100 µM	53	> 100 µM	39.8	> 100 µM	> 100 µM	> 100 µM	> 100	> 100 µM
CC(=O)/C=C/c1cccc(N=S)c1	–	13.1 µM	–	> 49.1 µM	–	> 63 µM	–	31.9 µM	–	5.92 µM	–	> 92.7 µM	–	> 53.8 µM	–	48.4 µM	–	> 81.9 µM	–	> 100 µM
C/C(=N\NC(N)=S)c1ccc(C)cc1C	–	> 100 µM	–	> 100 µM	–	> 100 µM	–	> 100 µM	–	> 100 µM	–	> 100 µM	–	> 100 µM	–	> 100 µM	–	> 100 µM	–	> 100 µM
O=c1c(Cl)c(Cl)cnn1-c1ccccc1	–	11.1 µM and 12.1 µM	0.825 µM and 1.8 µM	9.58 µM and 5.53 µM	5.44 µM and 15.4 µM	10.5 µM and 33.4 µM	–	3.51 µM and 5.38 µM	–	3.26 µM and 4.03 µM	2.04 µM and 5.73 µM	5.68 µM and 13.3 µM	–	10.3 µM and 8.61 µM	–	4.22 µM and 3.94 µM	8.36 µM and 3.44 µM	21.2 µM and 10.6 µM	–	> 19.7 µM and 3.92 µM
ClCc1ccccc1CSc1ncnc2nc[nH]c12	> 60	> 60 µM	> 60 µM	> 60 µM	> 60 µM	> 60 µM	> 60	> 60 µM	> 60	> 60 µM	> 60 µM	> 60 µM	> 60	> 60 µM	> 60	> 60 µM	> 60 µM	> 60 µM	> 60	> 60 µM
COc1ccc(-n2cc(-c3ccc(OC)c(OC)c3)[nH]c2=S)cc1Cl	52.3	> 100 µM	> 100 µM	> 100 µM	41.5 µM	> 100 µM	> 100	> 100 µM	> 100	> 100 µM	> 100 µM	> 100 µM	> 100	> 100 µM	> 100	> 100 µM	> 100 µM	> 100 µM	> 100	> 100 µM
COc1cc2c(c(O)c1C)C(=O)C(Cl)=CC2=O	–	28.2 µM	–	16 µM	–	23.3 µM	–	27.6 µM	–	23.8 µM	–	25 µM	–	63.3 µM	–	24.3 µM	–	> 65.6 µM	–	4.37 µM
Cc1c(C(=O)/C=C/c2cccc3ccccc23)[n+](=O)c2ccccc2n1[O-]	–	26.4 µM	–	16.8 µM	–	27.3 µM	–	27 µM	–	20.6 µM	–	25.7 µM	–	32.5 µM	–	22.7 µM	–	32.6 µM	–	38.2 µM
O=C(O/N=C1/CCC/C1=C\c1ccccc1)c1ccc([N+](=O)[O-])cc1	–	> 100 µM	–	> 100 µM	–	> 100 µM	–	> 100 µM	–	> 100 µM	–	> 100 µM	–	> 100 µM	–	> 100 µM	–	> 100 µM	–	> 100 µM
Cc1cc(C)nc(NS(=O)(=O)c2ccc(NC(=O)c3cccc4c(=O)c5ccccc5[nH]c34)cc2)n1	–	36.8 µM	–	> 100 µM	–	86.3 µM	–	46.3 µM	–	31.8 µM	–	33.4 µM	–	36.1 µM	–	37.6 µM	–	17.1 µM	–	> 100 µM
CC1=C2[C@@H](CC1)[C@]1(C)O[C@@](C(C)C)(C[C@H]1OC(=O)[C@H](C)O)[C@H]2OC(=O)/C=C/c1ccccc1	3.26	25.4 µM	16.2 µM	41.9 µM	6.19 µM	21.7 µM	11.2	25.4 µM	15.1	30.7 µM	14.3 µM	33.3 µM	14.8	36.7 µM	12.5	26.1 µM	15.3 µM	38 µM	10.3	37.5 µM
CCCCn1/c(=N/C(=S)N(C)C)ss/c1=N\C(=S)N(C)C	–	> 100 µM	–	> 100 µM	–	> 100 µM	–	> 100 µM	–	> 100 µM	–	> 100 µM	–	> 100 µM	–	–	–	> 100 µM	–	> 100 µM
